Measurements taken from patent publication US11484575B2, “Compositions and methods comprising bone morphogenetic protein and NEMO binding peptide” (Cedars-Sinai Medical Center, priority 2018, dated 2022).

Key:
NFκB = conditions: without affecting the basal activity of IKK; cited from earlier work
[1] = tested on: carrageenan-induced edema; conditions: cited from earlier work
[2] = tested on: inflammatory bone destruction; conditions: cited from earlier work
rat spine fusion model = assay: Manual palpation fusion, rat posterolateral spine fusion model; type: in vivo, Sprague Dawley rats; conditions: freshly harvested spine explants, 12 weeks
Experimental: Sixteen male adult (220 to 260 g) Sprague Dawley rats were utilized to compare BMP-2 mediated spine fusion in presence and absence of NBD. […] Therefore, this concentration of BMP-2 was employed. In detail, eight rats underwent single-level posterolateral fusion in the lumber spine using BMP-2 (total dose of 30 μg/side/rat) and NBD ([…]) loaded ACS and eight rats served as positive controls (30 μg/side/rat BMP-2-loaded ACS, no NBD). Rat spines were allowed to heal and consolidate for 12 weeks. Radiographical fusion was determined via high-resolution radiographs obtained at monthly intervals postoperatively. After 12 weeks, ex vivo micro-computed tomography was performed on explanted spines to determine the structural properties of the fusion mass. For functional assessment of spinal fusion, manual palpation was performed. Finally, histological evaluation of spine fusion was performed in terms of Masson-trichrome staining (Table 1). The posterolateral intertransverse process fusion surgical procedure is described briefly. […] The condition of the rats was monitored daily. […] Fusion was determined via manual palpation of segments by two independent observers. Any motion that was detected between the L4 and L5 segment, including the transverse process or vertebral bodies, was considered to indicate a fusion failure. […]

[3] = phase I clinical trial in dogs; cited from earlier work

## TALDWSWLQTE (listed as Homo sapiens) [NBD]
NFκB
  pro-inflammatory cytokine-induced NFκB activation: block
[1]; 100 μg and 500 μg NBD
  paw edema in mice: ameliorate
[1]; mouse, in vivo
  carrageenan-induced edema formation and cellular inflammation in mouse paws: significantly inhibit
[2]; continuous administration
  inflammatory bone destruction in vivo: prevent
[2]; in vivo
  signs of toxicity: without showing signs of toxicity
Rat spine fusion model
  fusion by manual palpation: 100%
[3]
  toxicity: low toxicity
